Source: PubChem BioAssay (NCI)
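Five compound concentrations were applied to cells in 96-well plates for 48 hours; endpoints were derived by simple linear interpolation of the resulting dose-response curve. GI50 marks 50% less growth. The concentration for full growth arrest is given as TGI.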

Experiments:
Assay in all cases: growth of human tumour cells (NCI), 48 h
[1] = system: SNB-19 CNS
[2] = system: U251 CNS
[3] = system: UACC-62 melanoma
[4] = system: NCI/ADR-RES ovarian
[5] = system: RXF 393 renal
[6] = system: K-562 leukemia
[7] = system: OVCAR-5 ovarian
[8] = system: SN12C renal
[9] = system: 786-0 renal
[10] = system: SF-539 CNS
[11] = system: A498 renal
[12] = system: MDA-MB-231 breast
[13] = system: NCI-H226 lung
[14] = system: SW-620 colon
[15] = system: SK-MEL-28 melanoma
[16] = system: PC-3 prostate
[17] = system: COLO 205 colon
[18] = system: NCI-H460 lung
[19] = system: OVCAR-8 ovarian
[20] = system: BT-549 breast
[21] = system: UACC-257 melanoma
[22] = system: HCT-15 colon
[23] = system: HOP-92 NSCLC
[24] = system: OVCAR-3 ovarian
[25] = system: ACHN renal
[26] = system: MOLT-4 leukemia
[27] = system: SF-268 CNS
[28] = system: HT29 colon
[29] = system: OVCAR-4 ovarian
[30] = system: A549 NSCLC
[31] = system: SK-OV-3 ovarian
[32] = system: NCI-H522 lung
[33] = system: MALME-3M melanoma
[34] = system: HCT-116 colon
[35] = system: RPMI-8226 leukemia
[36] = system: HS 578T breast
[37] = system: CAKI-1 renal
[38] = system: MCF7 breast
[39] = system: MDA-MB-468 breast
[40] = system: DU-145 prostate
[41] = system: NCI-H23 lung
[42] = system: TK-10 renal
[43] = system: SF-295 CNS
[44] = system: SNB-75 CNS
[45] = system: CCRF-CEM leukemia
[46] = system: KM12 colon
[47] = system: IGROV1 ovarian
[48] = system: EKVX NSCLC
[49] = system: HOP-62 NSCLC
[50] = system: UO-31 renal
[51] = system: SK-MEL-5 melanoma
[52] = system: MDA-MB-435
[53] = system: T-47D breast
[54] = system: SK-MEL-2 melanoma
[55] = system: SR leukemia
[56] = system: LOX IMVI melanoma
[57] = system: HCC-2998 colon
[58] = system: M14 melanoma
[59] = system: HL-60(TB) leukemia

Cc1noc2c(Cc3ccccc3)nn(CC(=O)N/N=C/c3ccc(F)cc3)c(=O)c12 showed a GI50 [1] of 6.74 µM, a TGI [1] of 24.2 µM and a GI50 [2] of 18.3 µM. The TGI [2] was greater than 100 µM, the GI50 [3] was 20.9 µM and the TGI [3] was 66.8 µM. The GI50 [4] was 21.3 µM, the TGI [4] was greater than 100 µM and the GI50 [5] was 5.4 µM. It also gave a TGI [5] of 21.2 µM, a GI50 [6] of 84.4 µM and a TGI [6] greater than 100 µM. For the same molecule, the GI50 [7] was greater than 100 µM, the TGI [7] was greater than 100 µM and the GI50 [8] was greater than 100 µM. For the same molecule, the TGI [8] was greater than 100 µM, the GI50 [9] was 3.13 µM and the TGI [9] was 12.4 µM. For the same molecule, the GI50 [10] was 16.7 µM, the TGI [10] was 37.3 µM and the GI50 [11] was 11 µM. It also gave a TGI [11] of 33.7 µM, a GI50 [12] of 4.92 µM and a TGI [12] of 21.8 µM. The GI50 [13] was 4.12 µM, the TGI [13] was 29.3 µM and the GI50 [14] was greater than 100 µM. It also gave a TGI [14] greater than 100 µM, a GI50 [15] greater than 100 µM and a TGI [15] greater than 100 µM. It also gave a GI50 [16] of 66.1 µM, a TGI [16] greater than 100 µM and a GI50 [17] greater than 100 µM. For the same molecule, the TGI [17] was greater than 100 µM, the GI50 [18] was 9.78 µM and the TGI [18] was greater than 100 µM. The GI50 [19] was 27.9 µM, the TGI [19] was greater than 100 µM and the GI50 [20] was 14.5 µM. For the same molecule, the TGI [20] was 37.8 µM, the GI50 [21] was 78.1 µM and the TGI [21] was greater than 100 µM. The GI50 [22] was greater than 100 µM, the TGI [22] was greater than 100 µM and the GI50 [23] was 9.56 µM. It also gave a TGI [23] of 27.8 µM, a GI50 [24] of 87.1 µM and a TGI [24] greater than 100 µM. It also gave a GI50 [25] of 4.88 µM, a TGI [25] of 24.1 µM and a GI50 [26] greater than 100 µM. It also gave a TGI [26] greater than 100 µM, a GI50 [27] of 24.6 µM and a TGI [27] greater than 100 µM. The GI50 [28] was greater than 100 µM, the TGI [28] was greater than 100 µM and the GI50 [29] was 3.95 µM. It also gave a TGI [29] greater than 100 µM, a GI50 [30] of 46.2 µM and a TGI [30] greater than 100 µM. The GI50 [31] was 4.4 µM, the TGI [31] was 16 µM and the GI50 [32] was 19.1 µM. It also gave a TGI [32] of 73.6 µM, a GI50 [33] of 8.99 µM and a TGI [33] of 38.5 µM. The GI50 [34] was 5.08 µM, the TGI [34] was 77.3 µM and the GI50 [35] was greater than 100 µM. The TGI [35] was greater than 100 µM, the GI50 [36] was 4.65 µM and the TGI [36] was 46.7 µM. For the same molecule, the GI50 [37] was 6.13 µM, the TGI [37] was 32.1 µM and the GI50 [38] was 66.5 µM. For the same molecule, the TGI [38] was greater than 100 µM, the GI50 [39] was 16.1 µM and the TGI [39] was 57.8 µM. It also gave a GI50 [40] greater than 100 µM, a TGI [40] greater than 100 µM and a GI50 [41] of 17 µM. The TGI [41] was 41.7 µM, the GI50 [42] was 13.6 µM and the TGI [42] was 36.9 µM. The GI50 [43] was 3.33 µM, the TGI [43] was 17.3 µM and the GI50 [44] was 8.25 µM. The TGI [44] was 32.2 µM, the GI50 [45] was greater than 100 µM and the TGI [45] was greater than 100 µM. It also gave a GI50 [46] greater than 100 µM, a TGI [46] greater than 100 µM and a GI50 [47] of 22.5 µM. For the same molecule, the TGI [47] was 54.2 µM, the GI50 [48] was greater than 100 µM and the TGI [48] was greater than 100 µM. For the same molecule, the GI50 [49] was 5.29 µM, the TGI [49] was 21 µM and the GI50 [50] was 18 µM. It also gave a TGI [50] greater than 100 µM, a GI50 [51] of 33.2 µM and a TGI [51] greater than 100 µM. The GI50 [52] was greater than 100 µM, the TGI [52] was greater than 100 µM and the GI50 [53] was 5.62 µM. The TGI [53] was greater than 100 µM, the GI50 [54] was 16.3 µM and the TGI [54] was 33.3 µM. For the same molecule, the GI50 [55] was greater than 100 µM, the TGI [55] was greater than 100 µM and the GI50 [56] was 33 µM. It also gave a TGI [56] greater than 100 µM, a GI50 [57] greater than 100 µM and a TGI [57] greater than 100 µM. For the same molecule, the GI50 [58] was 26.1 µM, the TGI [58] was greater than 100 µM and the GI50 [59] was greater than 100 µM. The TGI [59] was greater than 100 µM.
